Source: patent US10112954B2, “Bicyclic heteroaryl derivatives having inhibitory activity for protein kinase” (HANMI PHARM. CO., LTD., priority 2010, dated 2018)
pIC50: −log10 of the molar value.

Key:
FGFR1 = target: T1, FGFR1 (Homo sapiens, UniProt P11362); assay: Inhibition of FGFR1 kinase (fluorescence polarization kinase assay); format: biochemical; conditions: Table 2, class symbols; read-out: FGFR1 IC50
T1 construct: purchased Upstate Company
Method: (§1) Inhibition activities of kinases of the inventive compounds (test compounds) prepared in the Examples were assessed and represented as IC50 values.
(§2) Kinases used in Test Examples 1 to 3 were purchased from Upstate Company.
(§3) 100 mM HEPES (pH 7.4), 25 mM MgCl2, 10 mM MnCl2 and 250 μM Na3VO4 were mixed to prepare a kinase buffer. Each of kinases to be measured was diluted to a concentration of 25˜300 ng per one reaction according to its activity with the kinase buffer. Also, each of the test compounds was serially diluted to a concentration starting from 100 nM up to 0.1 nM with the kinase buffer. 10 μl of the serially diluted solution of each of the test compounds and 10 μl of the diluted kinase were added to each well of a 96-well microplate, and the plate was incubated at room temperature for 10 mins. 10 μl of a substrate and 10 μl of ATP were successively added thereto to initiate a kinase reaction, and the resulting mixture was incubated at room temperature for 1 hour. The ATP was used in a form of a solution diluted to a concentration determined according to a kinase's Km value with distilled water. 10˜100 ng/mL poly(Glu, Tyr) 4:1 (Sigma) was used as the substrate. 10 μl of 6 mM EDTA was added to each well and stirred for 5 mins to terminate the kinase reaction. For a measurement of phosphorylation degree, 50 μl of a solution containing anti-phosphotyrosine antibody and fluorescein-labeled phosphopeptide was added to the reaction mixture, followed by incubating for 30 mins. The FP (fluorescence polarization) value of each well was determined with a Victor™ D fluorescence meter (Perkin Elmer Lifesciences).
(§4) IC50, the concentration at which 50% inhibition occurs, was evaluated based on the difference between the final concentration of the test cells and the initial concentration of the cells incubated in a well not-treated with the test compound which was regarded as 100%. IC50 values of the test compounds on the FGFR kinase were shown in Table 2, and those of the test compound obtained in Example 177 on various kinases, in Table 3.

FGFR3 = target: T2, FGFR3 (Homo sapiens, UniProt P22607); assay: Inhibition of FGFR3 kinase (fluorescence polarization kinase assay); format: biochemical; conditions: Table 2, class symbols; read-out: FGFR3 IC50
T2 construct: purchased Upstate Company
T2 sequence (P22607 23-806, species assumed): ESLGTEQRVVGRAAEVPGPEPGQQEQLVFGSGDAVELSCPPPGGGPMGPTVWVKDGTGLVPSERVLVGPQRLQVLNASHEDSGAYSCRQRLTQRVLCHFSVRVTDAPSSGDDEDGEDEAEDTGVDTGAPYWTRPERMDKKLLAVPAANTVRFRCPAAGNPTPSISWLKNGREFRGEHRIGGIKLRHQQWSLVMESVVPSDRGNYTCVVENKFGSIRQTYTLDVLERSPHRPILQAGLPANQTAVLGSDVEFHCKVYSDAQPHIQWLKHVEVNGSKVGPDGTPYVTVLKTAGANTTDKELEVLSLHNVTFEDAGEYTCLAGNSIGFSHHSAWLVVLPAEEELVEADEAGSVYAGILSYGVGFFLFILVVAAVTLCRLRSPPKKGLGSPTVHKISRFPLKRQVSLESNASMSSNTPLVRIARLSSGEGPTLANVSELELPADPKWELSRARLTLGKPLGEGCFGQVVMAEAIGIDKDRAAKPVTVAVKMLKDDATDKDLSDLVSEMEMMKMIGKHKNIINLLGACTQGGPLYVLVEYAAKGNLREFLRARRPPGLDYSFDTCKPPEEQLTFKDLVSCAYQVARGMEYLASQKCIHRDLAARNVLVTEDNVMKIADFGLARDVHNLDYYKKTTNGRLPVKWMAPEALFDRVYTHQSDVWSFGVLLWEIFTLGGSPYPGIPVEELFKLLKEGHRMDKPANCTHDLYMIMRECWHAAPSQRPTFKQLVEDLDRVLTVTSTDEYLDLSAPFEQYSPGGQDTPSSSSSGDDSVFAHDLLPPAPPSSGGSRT
Method: as §1, §2, §3, §4

T1 sequence (P11362 22-822, species assumed): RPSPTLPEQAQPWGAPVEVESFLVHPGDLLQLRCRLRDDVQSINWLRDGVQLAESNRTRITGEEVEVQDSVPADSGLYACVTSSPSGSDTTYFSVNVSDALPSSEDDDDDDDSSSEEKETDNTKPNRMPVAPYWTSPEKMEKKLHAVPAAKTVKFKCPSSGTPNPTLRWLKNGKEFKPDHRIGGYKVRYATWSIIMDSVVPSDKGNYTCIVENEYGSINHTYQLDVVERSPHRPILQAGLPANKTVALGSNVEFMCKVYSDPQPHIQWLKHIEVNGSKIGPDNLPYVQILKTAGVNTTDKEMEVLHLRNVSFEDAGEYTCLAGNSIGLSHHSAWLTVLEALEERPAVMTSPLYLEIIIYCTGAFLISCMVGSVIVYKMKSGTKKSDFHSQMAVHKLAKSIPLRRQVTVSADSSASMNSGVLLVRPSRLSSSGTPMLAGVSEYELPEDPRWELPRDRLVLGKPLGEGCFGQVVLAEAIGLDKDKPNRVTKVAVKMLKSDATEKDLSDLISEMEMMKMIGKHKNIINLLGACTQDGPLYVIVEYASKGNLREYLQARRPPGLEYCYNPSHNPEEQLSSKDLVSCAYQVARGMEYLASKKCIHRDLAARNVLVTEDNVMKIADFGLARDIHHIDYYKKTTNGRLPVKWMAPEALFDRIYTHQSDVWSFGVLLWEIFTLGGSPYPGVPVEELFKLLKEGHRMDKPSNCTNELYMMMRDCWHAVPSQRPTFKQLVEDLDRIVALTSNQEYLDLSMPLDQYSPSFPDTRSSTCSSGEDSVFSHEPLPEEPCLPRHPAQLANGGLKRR

| pIC50 (FGFR1) | pIC50 (FGFR3) | Structure (SMILES) |
| --- | --- | --- |
| 6.30 to 7.00 | 6.00 to 6.30 | CCOC(=O)NC(=S)Nc1ncnc2c(C(=O)Nc3c(Cl)c(OC)cc(OC)c3Cl)csc12 [Example 216, N-(2,6-dichloro-3,5-dimethoxyphenyl)-4-(3-(ethoxycarbonyl)thioureido)thieno[3,2-d]pyrimidine-7-carboxamide] |
| 7.00 to 9.00 | 7.00 to 9.00 | COc1cc(OC)c(Cl)c(NC(=O)c2csc3c(Nc4ccc(NC(=O)CN(C)C)cn4)ncnc23)c1Cl [Example 299, N-(2,6-dichloro-3,5-dimethoxyphenyl)-4-(5-(2-(dimethylamino)acetamido)pyridin-2-ylamino)thieno[3,2-d]pyrimidine-7-carboxamide] |
| 7.00 to 9.00 | 7.00 to 9.00 | COc1cc(OC)c(Cl)c(NC(=O)c2csc3c(Nc4ccc(CN5CCOCC5)cn4)ncnc23)c1Cl [Example 247, N-(2,6-dichloro-3,5-dimethoxyphenyl)-4-(5-(morpholinomethyl)pyridin-2-ylamino)thieno[3,2-d]pyrimidine-7-carboxamide] |
| 6.30 to 7.00 | 7.00 to 9.00 | COc1cc(OC)c(Cl)c(NC(=O)c2csc3c(Nc4ccc(N5CCC(N6CCCC6)CC5)cc4)ncnc23)c1Cl [Example 202, N-(2,6-dichloro-3,5-dimethoxyphenyl)-4-(4-(4-(pyrrolidin-1-yl)piperidin-1-yl)phenylamino) thieno[3,2-d]pyrimidine-7-carboxamide] |
